These results are taken from patent publication US20250206757A1 (GASHERBRUM BIO, INC., priority 2022, published 2025).

SMILES strings stand for the structures.

This experiment has as its target GLP-1 Receptor (Homo sapiens, UniProt P43220). Briefly: GLP-1R agonist cAMP stimulation assay (HEK293/GLP1R/CRE-LUC cells, HTRF cAMP dynamic 2 kit). It counts as cell-based. The settings on record: HEK293/CRE-Luc cell line stably expressing the GLP-1 Receptor; 30 min incubation at 37° C. Summed up:
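HEK293 cells stably expressing GLP-1R with CRE-Luc, 1000 cells/well in DPBS with 0.5 mM IBMX and 0.10% BSA, exposed to half-log compound dilutions for 30 min at 37 °C. cAMP measured by HTRF (665/615 nm) after 1 h at room temperature.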

Chain of GLP-1 Receptor (P43220 24-463): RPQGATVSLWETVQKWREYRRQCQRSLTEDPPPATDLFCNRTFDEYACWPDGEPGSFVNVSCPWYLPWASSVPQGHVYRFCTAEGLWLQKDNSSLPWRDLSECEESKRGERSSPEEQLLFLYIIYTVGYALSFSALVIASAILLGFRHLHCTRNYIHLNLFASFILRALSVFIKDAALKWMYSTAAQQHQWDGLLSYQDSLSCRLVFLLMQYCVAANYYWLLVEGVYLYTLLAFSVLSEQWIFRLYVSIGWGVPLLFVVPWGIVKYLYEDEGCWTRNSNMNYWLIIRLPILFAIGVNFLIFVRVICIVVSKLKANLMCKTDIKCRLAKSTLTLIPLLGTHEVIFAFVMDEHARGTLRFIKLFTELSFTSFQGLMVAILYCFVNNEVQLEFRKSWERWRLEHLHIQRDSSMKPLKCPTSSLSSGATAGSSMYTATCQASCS

Consider `O=c1[nH]c(-c2cc3c(nc(CN4CCc5cc(C(F)(F)F)c(OCc6ccc(Cl)cc6F)nc5C4)n3C[C@@H]3CCO3)s2)no1` [Compound 58, 3-[2-({2-[(4-chloro-2-fluorophenyl)methoxy]-3-(trifluoromethyl)-5,6,7,8-tetrahydro-1,7-naphthyridin-7-yl}methyl)-1-{[(2S)-oxetan-2-yl]methyl}-1H-thieno[2,3-d]imidazol-5-yl]-4,5-dihydro-1,2,4-oxadiazol-5-one], for which the EC50 – broadly, the concentration that produces a half-maximal response – is < 1 nM.

In the case of `Fc1cc(Cl)ccc1COc1nc2c(cc1C(F)(F)F)CCN(Cc1nc3sc(-c4nnc(C(F)(F)F)[nH]4)cc3n1C[C@@H]1CCO1)C2` [Compound 59, 2-[(4-chloro-2-fluorophenyl)methoxy]-7-[(1-{[(2S)-oxetan-2-yl]methyl}-5-[5-(trifluoromethyl)-4H-1,2,4-triazol-3-yl]-1H-thieno[2,3-d]imidazol-2-yl)methyl]-3-(trifluoromethyl)-5,6,7,8-tetrahydro-1,7-naphthyridine], the EC50 is < 1 nM.

The compound `Cc1nnc(-c2cc3c(nc(CN4CCc5cc(C(F)(F)F)c(OCc6ccc(Cl)cc6F)nc5C4)n3C[C@@H]3CCO3)s2)[nH]1` [Compound 60, 2-[(4-chloro-2-fluorophenyl)methoxy]-7-{[5-(5-methyl-4H-1,2,4-triazol-3-yl)-1-{[(2S)-oxetan-2-yl]methyl}-1H-thieno[2,3-d]imidazol-2-yl]methyl}-3-(trifluoromethyl)-5,6,7,8-tetrahydro-1,7-naphthyridine] registered an EC50 of 1 to 300 nM.

In the case of `Cc1nnc(-c2cc3nc(CN4CCc5cc(C(F)(F)F)c(OCc6ccc(Cl)cc6)nc5C4)n(C[C@@H]4CCO4)c3cn2)[nH]1` [Compound 61, 2-[(4-chlorophenyl)methoxy]-7-{[6-(5-methyl-4H-1,2,4-triazol-3-yl)-3-{1[(2S)-oxetan-2-yl]methyl}-3H-imidazo[4,5-c]pyridin-2-yl]methyl}-3-(trifluoromethyl)-5,6,7,8-tetrahydro-1,7-naphthyridine], the EC50 is < 1 nM.

For `Cc1nnc(-c2cc3nc(CN4CCc5cc(C(F)(F)F)c(OCc6ccc(Cl)cc6F)nc5C4)n(C[C@@H]4CCO4)c3cn2)[nH]1` [Compound 62, 2-[(4-chloro-2-fluorophenyl)methoxy]-7-{[6-(5-methyl-4H-1,2,4-triazol-3-yl)-3-{[(2S)-oxetan-2-yl]methyl}-3H-imidazo[4,5-c]pyridin-2-yl]methyl}-3-(trifluoromethyl)-5,6,7,8-tetrahydro-1,7-naphthyridine], the EC50 is < 1 nM.

`Cc1nnc(-c2cc3nc(CN4CCc5cc(C(F)(F)F)c(OCc6c(F)cc(Cl)cc6F)nc5C4)n(C[C@@H]4CCO4)c3cn2)[nH]1` [Compound 63, 2-[(4-chloro-2,6-difluorophenyl)methoxy]-7-{[6-(5-methyl-4H-1,2,4-triazol-3-yl)-3-{[(2S)-oxetan-2-yl]methyl}-3H-imidazo[4,5-c]pyridin-2-yl]methyl}-3-(trifluoromethyl)-5,6,7,8-tetrahydro-1,7-naphthyridine]: the EC50 was < 1 nM.

Compound `FC(F)(F)c1cc2c(nc1OCc1ccc(Cl)cc1)CN(Cc1nc3cc(-c4nnc[nH]4)ncc3n1C[C@@H]1CCO1)CC2` [Compound 64, 2-[(4-chlorophenyl)methoxy]-7-[(3-{[(2S)-oxetan-2-yl]methyl}-6-(4H-1,2,4-triazol-3-yl)-3H-imidazo[4,5-c]pyridin-2-yl)methyl]-3-(trifluoromethyl)-5,6,7,8-tetrahydro-1,7-naphthyridine] had an EC50 of 1 to 300 nM.

For `Fc1cc(Cl)ccc1COc1nc2c(cc1C(F)(F)F)CCN(Cc1nc3cc(-c4nnc(C5CC5)[nH]4)ncc3n1C[C@@H]1CCO1)C2` [Compound 65, 2-[(4-chloro-2-fluorophenyl)methoxy]-7-{[6-(5-cyclopropyl-4H-1,2,4-triazol-3-yl)-3-{1[(2S)-oxetan-2-yl]methyl}-3H-imidazo[4,5-c]pyridin-2-yl]methyl}-3-(trifluoromethyl)-5,6,7,8-tetrahydro-1,7-naphthyridine], the concentration for a half-maximal effect (EC50) is < 1 nM.

With `CC(F)(F)c1nnc(-c2cc3nc(CN4CCc5cc(C(F)(F)F)c(OCc6ccc(Cl)cc6F)nc5C4)n(C[C@@H]4CCO4)c3cn2)[nH]1` [Compound 66, 2-[(4-chloro-2-fluorophenyl)methoxy]-7-({6-[5-(1,1-difluoroethyl)-4H-1,2,4-triazol-3-yl]-3-{[(2S)-oxetan-2-yl]methyl}-3H-imidazo[4,5-c]pyridin-2-yl}methyl)-3-(trifluoromethyl)-5,6,7,8-tetrahydro-1,7-naphthyridine], the EC50 is < 1 nM.

`Cc1nnc(-c2cnc3c(c2)nc(CN2CCc4cc(C(F)(F)F)c(OCc5ccc(Cl)cc5F)nc4C2)n3C[C@@H]2CCO2)[nH]1` [Compound 67, 2-[(4-chloro-2-fluorophenyl)methoxy]-7-{[6-(5-methyl-4H-1,2,4-triazol-3-yl)-3-{[(2S)-oxetan-2-yl]methyl}-3H-imidazo[4,5-b]pyridin-2-yl]methyl}-3-(trifluoromethyl)-5,6,7,8-tetrahydro-1,7-naphthyridine] showed an EC50 of 1 to 300 nM.

`Cc1nnc(-c2ccc3c(nc(CN4CCc5cc(C(F)(F)F)c(OCc6ccc(Cl)cc6)nc5C4)n3C[C@@H]3CCO3)c2F)[nH]1` [Compound 68, 2-[(4-chlorophenyl)methoxy]-7-{[4-fluoro-5-(5-methyl-4H-1,2,4-triazol-3-yl)-1-{[(2S)-oxetan-2-yl]methyl}-1H-1,3-benzodiazol-2-yl]methyl}-3-(trifluoromethyl)-5,6,7,8-tetrahydro-1,7-naphthyridine]: the EC50 was < 1 nM.

For `N#Cc1cc2c(nc1OCc1c(F)cc(Cl)cc1F)CN(Cc1nc3cc(-c4nnc(C(F)F)[nH]4)ncc3n1C[C@@H]1CCO1)CC2` [Compound 69, 2-[(4-chloro-2,6-difluorophenyl)methoxy]-7-({6-[5-(difluoromethyl)-4H-1,2,4-triazol-3-yl]-3-{[(2S)-oxetan-2-yl]methyl}-3H-imidazo[4,5-c]pyridin-2-yl}methyl)-5,6,7,8-tetrahydro-1,7-naphthyridine-3-carbonitrile], the EC50 was < 1 nM.

With `N#Cc1cc2c(nc1OCc1c(F)cc(Cl)cc1F)CN(Cc1nc3cc(-c4noc(=O)[nH]4)ccc3n1C[C@@H]1CCO1)CC2` [Compound 70, 2-[(4-chloro-2,6-difluorophenyl)methoxy]-7-[(1-{[(2S)-oxetan-2-yl]methyl}-5-(5-oxo-4,5-dihydro-1,2,4-oxadiazol-3-yl)-1H-1,3-benzodiazol-2-yl)methyl]-5,6,7,8-tetrahydro-1,7-naphthyridine-3-carbonitrile], the EC50 was < 1 nM.

Take `N#Cc1cc2c(nc1OCc1c(F)cc(Cl)cc1F)CN(Cc1nc3cc(-c4nnc(C(F)(F)F)[nH]4)ncc3n1C[C@@H]1CCO1)CC2` [Compound 71, 2-[(4-chloro-2,6-difluorophenyl)methoxy]-7-[(3-{[(2S)-oxetan-2-yl]methyl}-6-[5-(trifluoromethyl)-4H-1,2,4-triazol-3-yl]-3H-imidazo[4,5-c]pyridin-2-yl)methyl]-5,6,7,8-tetrahydro-1,7-naphthyridine-3-carbonitrile]: the EC50 is < 1 nM.

On to `Fc1cc(Cl)ccc1COc1nc2c(cc1C(F)F)CCN(Cc1nc3cc(-c4nnc(C(F)(F)F)[nH]4)ncc3n1C[C@@H]1CCO1)C2` [Compound 72, 2-[(4-chloro-2-fluorophenyl)methoxy]-3-(difluoromethyl)-7-[(3-{[(2S)-oxetan-2-yl]methyl}-6-[5-(trifluoromethyl)-4H-1,2,4-triazol-3-yl]-3H-imidazo[4,5-c]pyridin-2-yl)methyl]-5,6,7,8-tetrahydro-1,7-naphthyridine], for which the EC50 was < 1 nM.

For `FC(F)c1ccc(COc2nc3c(cc2C(F)(F)F)CCN(Cc2nc4cc(-c5nnc(C(F)(F)F)[nH]5)ncc4n2C[C@@H]2CCO2)C3)cc1` [Compound 73, 2-{[4-(difluoromethyl)phenyl]methoxy}-7-[(3-{[(2S)-oxetan-2-yl]methyl}-6-[5-(trifluoromethyl)-4H-1,2,4-triazol-3-yl]-3H-imidazo[4,5-c]pyridin-2-yl)methyl]-3-(trifluoromethyl)-5,6,7,8-tetrahydro-1,7-naphthyridine], the EC50 was < 1 nM.

Turning to `FC(F)(F)c1nnc(-c2cc3nc(CN4CCc5cc(C(F)(F)F)c(OCc6ccc(Cl)cn6)nc5C4)n(C[C@@H]4CCO4)c3cn2)[nH]1` [Compound 74, 2-[(5-chloropyridin-2-yl)methoxy]-7-[(3-{[(2S)-oxetan-2-yl]methyl}-6-[5-(trifluoromethyl)-4H-1,2,4-triazol-3-yl]-3H-imidazo[4,5-c]pyridin-2-yl)methyl]-3-(trifluoromethyl)-5,6,7,8-tetrahydro-1,7-naphthyridine], the EC50 was < 1 nM.

As to `N#Cc1ccc(COc2nc3c(cc2C(F)(F)F)CCN(Cc2nc4cc(-c5nnc(C(F)(F)F)[nH]5)ncc4n2C[C@@H]2CCO2)C3)c(F)c1` [Compound 75, 3-fluoro-4-[({7-[(3-{[(2S)-oxetan-2-yl]methyl}-6-[5-(trifluoromethyl)-4H-1,2,4-triazol-3-yl]-3H-imidazo[4,5-c]pyridin-2-yl)methyl]-3-(trifluoromethyl)-5,6,7,8-tetrahydro-1,7-naphthyridin-2-yl}oxy)methyl]benzonitrile], the EC50 is < 1 nM.

As for `Fc1cc(Cl)ccc1COc1nc2c(cc1C(F)(F)F)CCN(Cc1nc3cc(-c4nnc(C(F)(F)F)[nH]4)ncc3n1C[C@H]1CCOC1)C2` [Compound 76, 2-[(4-chloro-2-fluorophenyl)methoxy]-7-[(3-{[(3R)-oxolan-3-yl]methyl}-6-[5-(trifluoromethyl)-4H-1,2,4-triazol-3-yl]-3H-imidazo[4,5-c]pyridin-2-yl)methyl]-3-(trifluoromethyl)-5,6,7,8-tetrahydro-1,7-naphthyridine], the EC50 is 1 to 300 nM.

Turning to `Fc1cc(Cl)ccc1COc1nc2c(cc1C(F)(F)F)CCN(Cc1nc3cc(-c4nnc(C(F)(F)F)[nH]4)ncc3n1C[C@@H]1CCOC1)C2` [Compound 77, 2-[(4-chloro-2-fluorophenyl)methoxy]-7-[(3-{1[(3S)-oxolan-3-yl]methyl}-6-[5-(trifluoromethyl)-4H-1,2,4-triazol-3-yl]-3H-imidazo[4,5-c]pyridin-2-yl)methyl]-3-(trifluoromethyl)-5,6,7,8-tetrahydro-1,7-naphthyridine], the EC50 fell in the range of 1 to 300 nM.
